Key:
NRF2 gene = experiment: Effect of promoting expression of NRF2 gene (quantitative real-time PCR, standardized to GAPDH) in NHEK exposed to atmospheric dust; type: cell-based, human; settings: sample 10 μM for 24 hours, then atmospheric dust added 500 μg/mL for 48 hours, relative to control without atmospheric dust = 1
Description: The effect of Na tocopherol phosphate on promoting the expression of an NRF2 gene in normal human epidermal keratinocytes (NHEK, manufactured by KURABO INDUSTRIES LTD.) was measured under the following conditions.
The NHEK cells were seeded in a HuMedia KG2 medium manufactured by KURABO INDUSTRIES LTD. at the seeding density of 10000 cells/cm^2, and cultured for 24 hours under the conditions of 37° C. and 5% CO2. Next, a sample, in which Na tocopherol phosphate or tocopherol acetate was dissolved in an aqueous solution of 0.05% (V/V) ethanol, was added to the culture medium so that the final concentration of Na tocopherol phosphate or tocopherol acetate was 10 μM, and culturing was performed for 24 hours. Furthermore, one obtained by adding 5 μL of the aqueous solution of 0.05% (V/V) ethanol to the culture medium and culturing for 24 hours was also prepared. […] Using this cDNA as a template, the expression level of the NRF2 gene was quantitatively determined by quantitative real-time PCR using a primer specific to the NRF2 gene (Perfect Real Time Primer, manufactured by Takara Bio Inc.). As an internal standard gene, the expression level of GAPDH was quantitatively determined (primer used: Perfect Real Time Primer, manufactured by Takara Bio Inc.), and the expression level of the NRF2 gene was standardized based on the expression level of GAPDH. […]

[1] = system: normal human epidermal keratinocytes (NHEK); experiment: Effect of suppressing ROS production (dichlorofluorescein diacetate ROS assay kit) in NHEK exposed to atmospheric dust; type: cell-based; settings: sample 10 μM for 24 hours, then atmospheric dust (NIST 1648a) added 500 μg/mL for 48 hours, fluorescence relative to control without atmospheric dust = 1
Description: The effect of Na tocopherol phosphate on suppressing ROS production in normal human epidermal keratinocytes (NHEK, manufactured by KURABO INDUSTRIES LTD.) was measured under the following conditions.
The NHEK cells were seeded in a HuMedia KG2 medium manufactured by KURABO INDUSTRIES LTD. at the seeding density of 10000 cells/cm^2, and cultured for 24 hours under the conditions of 37° C. and 5% CO2. Next, a sample, in which Na tocopherol phosphate or tocopherol acetate was dissolved in an aqueous solution of 0.05% (V/V) ethanol, was added to the culture medium so that the final concentration of Na tocopherol phosphate or tocopherol acetate was 10 μM, and culturing was performed for 24 hours under the conditions of 37° C. and 5% CO2. Furthermore, one obtained by adding 1 μL of the aqueous solution of 0.05% (V/V) ethanol to the culture medium and culturing for 24 hours was also prepared. […] Thereafter, the ROS production amount was measured using a ROS assay kit (manufactured by OZ BIOSCIENCES). […] After washing with PBS again, 100 μL of PBS was added, and the fluorescence intensity at an excitation wavelength of 485 nm/an absorption wavelength of 535 nm was measured with a microplate reader i-Control (manufactured by Tecan Group Ltd.). […]

[2] = system: cell line derived from Lewis lung carcinoma (LLC); experiment: Effect of suppressing proliferation of cancer cells (WST-8) exposed to atmospheric dust; type: cell-based; settings: sample 10 μM for 24 hours, then atmospheric dust (NIST 1648a) added 500 μg/mL for 48 hours, absorbance 450 nm relative to control without atmospheric dust = 1
Description: The effect of Na tocopherol phosphate on suppressing the proliferation of cancer cells in a cell line derived from Lewis lung carcinoma (LLC, JCRB Cell Bank) was measured under the following conditions.
The LLC cells were seeded at the seeding density of 50000 cells/cm^2 in a culture medium in which a Ham F10 medium and an L15 medium (both manufactured by Sigma-Aldrich) were mixed at the ratio of 3:7 (volume ratio), and cultured for 24 hours under the conditions of 37° C. and 5% CO2. Next, a sample, in which Na tocopherol phosphate or tocopherol acetate was dissolved in an aqueous solution of 0.05% (V/V) ethanol, was added to the culture medium so that the final concentration of Na tocopherol phosphate or tocopherol acetate was 10 μM, and culturing was performed for 24 hours. Furthermore, one obtained by adding 1 μL of the aqueous solution of 0.05% (VN) ethanol to the culture medium and culturing for 24 hours was also prepared. […] Thereafter, the culture medium was replaced with a medium containing 10% (VN) of WST-8 of Nacalai Tesque Inc., and after further culturing for 3 hours, the absorbance at the wavelength of 450 nm was measured with a microplate reader i-Control (manufactured by Tecan Group Ltd.). […]

[3] = system: cell line derived from Lewis lung carcinoma (LLC); experiment: Effect of suppressing invasion of cancer cells (CytoSelect invasion assay kit) exposed to atmospheric dust; type: cell-based; settings: sample 10 μM for 24 hours, then atmospheric dust (NIST 1648a) added 500 μg/mL for 6 hours + 18 hours, fluorescence relative to control without atmospheric dust = 1
Description: The effect of Na tocopherol phosphate on suppressing the invasion of cells in a cell line derived from Lewis lung carcinoma (LLC, JCRB Cell Bank) was measured under the following conditions. A CytoSelect invasion assay kit manufactured by Cell Biolabs, Inc. was used for a test.
The LLC cells were seeded in a chamber plate for invasion tests attached to the above-mentioned invasion assay kit so that the concentration was 100000 cells/mL using a culture medium in which a Ham F10 medium and an L15 medium (both manufactured by Sigma-Aldrich) were mixed at the ratio of 3:7 (volume ratio), and cultured for 24 hours under the conditions of 37° C. and 5% CO2. Next, a sample, in which Na tocopherol phosphate or tocopherol acetate was dissolved in an aqueous solution of 0.05% (V/V) ethanol, was added to the culture medium so that the final concentration of Na tocopherol phosphate or tocopherol acetate was 10 μM, and culturing was further performed for 24 hours under the conditions of 37° C. and 5% CO2. […] Thereafter, the cells were stained using the above-mentioned invasion assay kit, and the fluorescence intensity at an excitation wavelength of 480 nm/an absorption wavelength of 570 nm was measured with a microplate reader i-Control (manufactured by Tecan Group Ltd.). […]

## CC(=O)Oc1c(C)c(C)c2c(c1C)CCC(C)(CCC[C@H](C)CCC[C@H](C)CCCC(C)C)O2 (stereo partly shown) [Tocopherol acetate, tocopherol acetate]
NRF2 gene
  Relative gene expression level NRF2: 0.71
[1]
  Relative ROS production amount: 1.67
[2]
  Relative cell proliferation amount: 3.98
[3]
  Relative cell invasion: 2.08
